SMILES strings stand for the structures.

The term viability denotes a read-out of living cells in per cent, often relative to untreated cells.

A short description of this data set: in vitro. The conditions noted are these: human, hela cells, % viability.

Consider `Cc1cc(-c2nc3ncccc3o2)ccc1NC(=S)NC(=O)c1cc2ccccc2o1` [CBK268922], for which the viability at 28.5 h, 10 µM is 83.1%.
For the compound `O=C(Nc1cc(Oc2ccc(Cl)cc2)cc([N+](=O)[O-])c1)c1cnn2c(C(F)F)cc(C3CC3)nc12` [CBK268925], the viability at 28.5 h, 10 µM was 105%.
On to `Cc1ccc(NC(=O)COc2ccc(/C=C\c3onc(C)c3[N+](=O)[O-])cc2)cc1` [CBK268928], for which the viability at 28.5 h, 10 µM turned out to be 88.2%.
Under `Cc1cc(C)c(NC(=O)CSc2nnc(-c3cccnc3)s2)c([N+](=O)[O-])c1` [CBK268929] stands 102%.
Take `CC1CN(S(=O)(=O)c2ccc(NC(=O)c3nc(SCc4ccccc4)ncc3Cl)cc2)CC(C)O1` (stereo not drawn) [CBK268930]: the viability at 28.5 h, 10 µM came out at 89.3%.
Consider `O=S(=O)(N1CCCCC1)N1CCCN(S(=O)(=O)N2CCCCC2)CC1` [CBK268939], for which the viability at 28.5 h, 10 µM turned out to be 85.4%.
In the case of `Cc1ccc(-c2nc3ccccc3[nH]2)cc1NC(=O)CSc1ccc(Cl)cc1` [CBK268942], the viability at 28.5 h, 10 µM was 98.3%.
For `COC(=O)c1cc(-c2cccnc2)[nH]n1` [CBK268945], the viability at 28.5 h, 10 µM was found to be 104%.
For the compound `CC1CCC(N(CCCN)Cc2ccco2)CC1C` (stereo not drawn) [CBK268947], the viability at 28.5 h, 10 µM was 95.6%.
Regarding `Cn1c(SCCCN2C(=O)c3cccc4cccc(c34)C2=O)nnc1-c1ccncc1` [CBK268951], the viability at 28.5 h, 10 µM was found to be 93.1%.
Turning to `O=C(Nc1ccc(Cc2ccncc2)cc1)c1ccc(-c2cc3ccccc3oc2=O)cc1` [CBK268952], the viability at 28.5 h, 10 µM was 121%.
Then `COc1cc(/C=C(/C#N)c2ccc(C(=O)O)cc2)cc(Br)c1OCC(=O)O` [CBK268956], with 92.3%; and `Cc1nn2cc(-c3n[nH]cc3[N+](=O)[O-])cnc2c1C(N)=O` [CBK268957], with 87.4%; and `C=CCn1c(SC(C)C(=O)O)nnc1-c1ccc(OC)cc1` (stereo not drawn) [CBK268958], with 91.1%.
As for `COC(=O)c1c(NC(=O)Cn2ccc([N+](=O)[O-])n2)sc2c1CCCC2` [CBK268960], the viability at 28.5 h, 10 µM was found to be 116%.
With `COC(=O)COc1ccc(C2Nc3c(Cl)ccc(C(=O)O)c3C3C=CCC32)cc1` (stereo not drawn) [CBK268961], the viability at 28.5 h, 10 µM was determined as 99.9%.
As to `COc1ccc(Cl)c(Cn2c(NCc3ccccn3)nc3c2c(=O)n(C)c(=O)n3C)c1` [CBK268965], the viability at 28.5 h, 10 µM came out at 97.6%.
`Cc1nn(CC(=O)NCc2ccc(C(=O)O)cc2)c(C)c1[N+](=O)[O-]` [CBK268967]: the viability at 28.5 h, 10 µM is 118%.
Then `CCSc1ncc(Cl)c(C(=O)N(Cc2cccc(Br)c2)C2CCS(=O)(=O)C2)n1` (stereo not drawn) [CBK268969], with 90.3%; and `Cn1nnnc1SCC(=O)Nc1cccc2nsnc12` [CBK268973], with 101%.
For `C=CCNC(=O)CCc1nc(-c2cccc(OC)c2)no1` [CBK268981], the viability at 28.5 h, 10 µM turned out to be 99.2%.
Under `CC(=O)Nc1ccc(S(=O)(=O)N2CCN(S(=O)(=O)N3CCCCCC3)CC2)cc1` [CBK268983] stands 99.3%; under `Cc1ccc(Nc2nc(N)nc(CN3CCN(Cc4ccc5c(c4)OCO5)CC3)n2)cc1` [CBK268985], 96.1%.
Under `CN(C)S(=O)(=O)N1CCN(c2ccc([N+](=O)[O-])c(NC3C4CC5CC(C4)CC3C5)c2)CC1` (stereo not drawn) [CBK268986] stands 102%; under `NS(=O)(=O)c1ccc(NC(=O)CSc2cccc3ccccc23)cc1` [CBK268987], 93.2%.
With `O=C(O)c1cc(-n2c(S)nnc2-c2ccncc2)ccc1Cl` [CBK268989], the viability at 28.5 h, 10 µM amounted to 94.9%.
Regarding `COc1ccc(NS(=O)(=O)c2ccc(NC(=S)NC(=O)C(C)(C)C)cc2)cc1` [CBK268990], the viability at 28.5 h, 10 µM worked out at 109%.
Under `CSc1ncc(Cl)c(C(=O)Nc2sc3c(c2C(=O)NCc2ccco2)CCC3)n1` [CBK268991] stands 97.2%; under `Cc1ccc(Cl)c(OCc2nnc(SCC(=O)O)n2N)c1` [CBK268992], 105%.
As to `CC(CCc1ccccc1)NC(=O)CN1CCOCC1` (stereo not drawn) [CBK268994], the viability at 28.5 h, 10 µM is 93%.

For the origin of these results see paper PMC12040169 (PLOS Biology, 2025).
